Source: ChEMBL document CHEMBL5113530, “Butyrylation Meets Adipogenesis-Probed by a p300-Catalyzed Acylation-Specific Small Molecule Inhibitor: Implication in Anti-obesity Therapy” (J Med Chem, 2022)
Active and inactive are the calls of the source. The calls are words filed in the database; no cut-off is given here.

What was measured:
[1] = Toxicity in male Sprague-Dawley rat assessed as average water intake measured per day at 250 mg/kg, po administered as single dose measured on day 1 (Rvb =32 ml/day); format: organism-based; settings: in vivo, 24 h, time 1 day
[2] = Toxicity in male Sprague-Dawley rat assessed as average water intake measured per day at 1000 mg/kg, po administered as single dose measured on day 1 (Rvb =32 ml/day); format: organism-based; settings: in vivo, 24 h, time 1 day
[3] = Toxicity in female Sprague-Dawley rat assessed as effect on body weight at 250 mg/kg, po administered as single dose measured on day 7 (Rvb =169.81 +/- 6.57 g); format: organism-based; settings: in vivo, 168 h, time 7 day
[4] = Toxicity in male Sprague-Dawley rat assessed as effect on body weight at 1000 mg/kg, po administered as single dose measured on day 1 (reference value: 174.75 +/- 7.61 g); format: organism-based; settings: in vivo, 24 h, time 1 day
Mus musculus [5] = assay: Anti-obesity activity in C57BL6/J mouse model of high fat diet-induced obesity assessed as reduction in hepatic steatosis at 50 mg/kg by hematoxylin and eosin staining based assay; format: functional, organism-based
[6] = Toxicity in male Sprague-Dawley rat assessed as average food intake at 250 mg/kg, po administered as single dose measured on day 7 (Rvb =20.24 g/day); format: organism-based; settings: in vivo, 168 h, time 7 day
[7] = Toxicity in male Sprague-Dawley rat assessed as average water intake measured per day at 500 mg/kg, po administered as single dose measured on day 1 (Rvb =32 ml/day); format: organism-based; settings: in vivo, 24 h, time 1 day
Mus musculus [8] = assay: Anti-obesity activity in db/db mouse assessed as inhibition of Adipoq-gene expression at 50 mg/kg, po qd administered for 30 days by qRT-PCR analysis; format: functional, organism-based; settings: time 30.0 day
[9] = Toxicity in male Sprague-Dawley rat assessed as average water intake measured per day at 1000 mg/kg, po administered as single dose measured on day 14 (Rvb =34 ml/day); format: organism-based; settings: in vivo, 336 h, time 14 day
3T3-L1 [10] = assay: Anti-adipogenic activity against mouse 3T3-L1 cells assessed as downregulation of ADIPOQ mRNA expression at 25 uM measured after 7 days by qRT-PCR analysis; format: functional, cell-based; settings: time 7.0 day
3T3-L1 [11] = assay: Inhibition of H3K23 butyrylation in mouse 3T3-L1 cells by Immunoblotting analysis; format: functional, cell-based
Mus musculus [12] = assay: Anti-obesity activity in db/db mouse assessed as reduction in hepatic steatosis at 50 mg/kg, po qd administered for 30 days by hematoxylin and eosin staining based assay; format: functional, organism-based; settings: time 30.0 day
[13] = Toxicity in female Sprague-Dawley rat assessed as average water intake measured per day at 250 mg/kg, po administered as single dose measured on day 14 (Rvb =26 ml/day); format: organism-based; settings: in vivo, 336 h, time 14 day
3T3-L1 [14] = assay: Anti-adipogenic activity against mouse 3T3-L1 cells assessed as downregulation of FABP4 mRNA expression at 25 uM measured after 7 days by qRT-PCR analysis; format: functional, cell-based; settings: time 7.0 day
Mus musculus [15] = assay: Anti-obesity activity in db/db mouse assessed as inhibition of slc2a4 expression at 50 mg/kg, po qd administered for 30 days by qRT-PCR analysis; format: functional, organism-based; settings: time 30.0 day
[16] = Toxicity in female Sprague-Dawley rat assessed as effect on body weight at 1000 mg/kg, po administered as single dose measured on day 1 (Rvb =152.21 +/- 6.58 g); format: organism-based; settings: in vivo, 24 h, time 1 day
[17] = Mutagenicity in Salmonella typhimurium TA97a assessed as number of revertants measured per plate at 10 to 1000 incubated for 48 hrs in absence of rat liver S9 fraction by plate incorporation assay; format: toxicity; settings: salmonella enterica subsp. enterica serovar typhimurium, s9, 48 h, dose 10-1000 µg
[18] = Toxicity in male Sprague-Dawley rat assessed as average food intake at 500 mg/kg, po administered as single dose measured on day 1 (Rvb =20.38 g/day); format: organism-based; settings: in vivo, 24 h, time 1 day
Mus musculus [19] = assay: Anti-obesity activity in C57BL6/J mouse model of high fat diet-induced obesity assessed as inhibition of H4K5 butyrylation level in liver at 50 mg/kg by DAPI staining based immunofluorescence microscopic analysis; format: functional, organism-based
[20] = Toxicity in female Sprague-Dawley rat assessed as effect on body weight at 1000 mg/kg, po administered as single dose measured on day 7 (Rvb =169.81 +/- 6.57 g); format: organism-based; settings: in vivo, 168 h, time 7 day
[21] = Toxicity in female Sprague-Dawley rat assessed as average food intake at 1000 mg/kg, po administered as single dose measured on day 7 (Rvb =15.65 g/day); format: organism-based; settings: in vivo, 168 h, time 7 day
[22] = Toxicity in male Sprague-Dawley rat assessed as effect on body weight at 1000 mg/kg, po administered as single dose measured on day 7 (reference value: 217.38 +/- 11.38 g); format: organism-based; settings: in vivo, 168 h, time 7 day
3T3-L1 [23] = assay: Anti-adipogenic activity against mouse 3T3-L1 cells assessed as downregulation of FASN mRNA expression at 25 uM measured after 7 days by qRT-PCR analysis; format: functional, cell-based; settings: time 7.0 day
[24] = Toxicity in female Sprague-Dawley rat assessed as effect on body weight at 1000 mg/kg, po administered as single dose measured on day 14 (Rvb =171.5 +/- 6.65 g); format: organism-based; settings: in vivo, 336 h, time 14 day
[25] = Toxicity in female Sprague-Dawley rat assessed as average water intake measured per day at 250 mg/kg, po administered as single dose measured on day 7 (Rvb =21 ml/day); format: organism-based; settings: in vivo, 168 h, time 7 day
[26] = Toxicity in male Sprague-Dawley rat assessed as average food intake at 250 mg/kg, po administered as single dose measured on day 1 (Rvb =20.38 g/day); format: organism-based; settings: in vivo, 24 h, time 1 day
Mus musculus [27] = assay: Anti-obesity activity in db/db mouse assessed as inhibition of lep gene expression at 50 mg/kg, po qd administered for 30 days by qRT-PCR analysis; format: functional, organism-based; settings: time 30.0 day
Mus musculus [28] = assay: Anti-obesity activity in C57BL6/J mouse model of high fat diet-induced obesity assessed as reduction in epididymal fat pad weight at 50 mg/kg; format: functional, organism-based
[29] = Mutagenicity in Salmonella typhimurium TA100 assessed as number of revertants measured per plate at 10 to 1000 incubated for 48 hrs in absence of rat liver S9 fraction by plate incorporation assay; format: toxicity; settings: salmonella enterica subsp. enterica serovar typhimurium, s9, 48 h, dose 10-1000 µg
3T3-L1 [30] = assay: Inhibition of H3K5 butyrylation in mouse 3T3-L1 cells by Immunoblotting analysis; format: functional, cell-based
[31] = Mutagenicity in Salmonella typhimurium TA102 assessed as number of revertants measured per plate at 10 to 1000 incubated for 48 hrs in presence of rat liver S9 fraction by plate incorporation assay; format: toxicity; settings: salmonella enterica subsp. enterica serovar typhimurium, s9, 48 h, dose 10-1000 µg
[32] = Toxicity in female Sprague-Dawley rat assessed as average water intake measured per day at 250 mg/kg, po administered as single dose measured on day 1 (Rvb =25 ml/day); format: organism-based; settings: in vivo, 24 h, time 1 day
[33] = Toxicity in female Sprague-Dawley rat assessed as average food intake at 250 mg/kg, po administered as single dose measured on day 1 (Rvb =17.84 g/day); format: organism-based; settings: in vivo, 24 h, time 1 day
[34] = Mutagenicity in Salmonella typhimurium TA102 assessed as number of revertants measured per plate at 10 to 1000 incubated for 48 hrs in absence of rat liver S9 fraction by plate incorporation assay; format: toxicity; settings: salmonella enterica subsp. enterica serovar typhimurium, s9, 48 h, dose 10-1000 µg
Mus musculus [35] = assay: Anti-obesity activity in C57BL6/J mouse model of high fat diet-induced obesity assessed as reduction in adipocyte hypertrophy at 50 mg/kg by hematoxylin and eosin staining based assay; format: functional, organism-based

For `COc1ccc(C(=O)C2=C3OC(C)(C)[C@@H](CC=C(C)C)C[C@@]34C[C@@H](CC=C(C)C)C(C)(C)[C@](CC=C(C)C)(C2=O)C4=O)cc1OC`, the Activity [1] was 32 mL, the Activity [2] was 34 mL and the Activity [3] was 174.54 g. For the same molecule, the Activity [4] was 176.24 g, the Activity (Mus musculus [5]) was “Active” and the Activity [6] was 20.79 g/day. For the same molecule, the Activity [7] was 36 mL, the Activity (Mus musculus [8]) was “Active” and the Activity [9] was 38 mL. For the same molecule, the Activity (3T3-L1 [10]) was “Active”, the inhibition (3T3-L1 [11]) was “Active” and the Activity (Mus musculus [12]) was “Active”. The Activity [13] was 24 mL, the Activity (3T3-L1 [14]) was “Active” and the Activity (Mus musculus [15]) was “Active”. The Activity [16] was 153.81 g, the Activity [17] was “Non-Toxic” and the Activity [18] was 20.99 g/day. For the same molecule, the Activity (Mus musculus [19]) was “Active”, the Activity [20] was 178.58 g and the Activity [21] was 17.82 g/day. The Activity [22] was 217.65 g, the Activity (3T3-L1 [23]) was “Active” and the Activity [24] was 179.52 g. The Activity [25] was 21 mL, the Activity [26] was 20.03 g/day and the Activity (Mus musculus [27]) was “Active”. For the same molecule, the Activity (Mus musculus [28]) was “Active”, the Activity [29] was “Non-Toxic” and the inhibition (3T3-L1 [30]) was “Active”. The Activity [31] was “Non-Toxic”, the Activity [32] was 26 mL and the Activity [33] was 20 g/day. The Activity [34] was “Non-Toxic” and the Activity (Mus musculus [35]) was “Active”.
